According to US9533983B2, “Antiplatelet agent” (Mitsubishi Tanabe Pharma Corporation, priority 2009, dated 2017):

Legend:
Type in all cases: cell-based
Conditions in all cases: Cavia porcellus, guinea pig PRP
[1] = test system: Collagen-Induced Platelet Aggregation; experiment: Platelet aggregation inhibitory activity: collagen-induced platelet aggregation in platelet rich plasma
Experimental: (§1) A blood of a guinea pig was sampled by using a 1/10 volume of a 3.8% sodium citrate as a platelet aggregation inhibitor, and a platelet rich plasma (PRP) was separated by centrifuging the blood sample at 1100 rpm for 10 min. After fractionating the PRP in the upper layer, the lower layer was centrifuged at 3000 rpm for 10 min to fractionate the platelet poor plasma (PPP). To 100 μL of PRP, a 1 μL solution of each compound was added, and after still standing at 37° C. for 1 min, the mixture was stirred at 37° C. for 1 min by a stirrer. Then, 11 μL of collagen, ristocetin, or ADP was added thereto to induce the platelet aggregation. The platelet aggregation ability was measured by using the mCM hematolaser 313M (L-M-S Inc.). Based on the assumption that a light transmittance of PPP corresponds to a 100% coagulation value, an aggregation rate at each concentration of the compound was determined, then, an IC50 value was calculated therefrom.
[Platelet Aggregation Inhibitory Activities: Collagen-Induced Platelet Aggregation]

[2] = test system: Ristocetin-Induced Platelet Aggregation; experiment: Platelet aggregation inhibitory activity: ristocetin-induced platelet aggregation in platelet rich plasma
Experimental: as §1
[Platelet Aggregation Inhibitory Activities: Ristocetin-Induced Platelet Aggregation]

[3] = test system: ADP-Induced Platelet Aggregation; experiment: Platelet aggregation inhibitory activity: ADP-induced platelet aggregation in platelet rich plasma
Experimental: as §1
[Platelet Aggregation Inhibitory Activities: ADP-Induced Platelet Aggregation]

IC50 [1] | IC50 [2] | IC50 [3] | SMILES
33 nM | 100 nM | > 10000 nM | COc1ccc(-n2c(-c3ccccn3)nc3cc(C(F)(F)F)ccc32)nn1 [Example 1, 1-(6-methoxypyridazin-3-yl)-2-pyridin-2-yl-5-(trifluoromethyl)-1H-benzimidazole]
32 nM | 32 nM | > 10000 nM | COc1ccc(-n2c(-c3ccccn3)nc3cc(OC(F)(F)F)ccc32)nn1 [Example 3, 1-(6-methoxypyridazin-3-yl)-2-pyridin-2-yl-5-(trifluoromethoxy)-1H-benzimidazole]
21 nM | 24 nM | > 10000 nM | COc1ccc(-n2c(-c3ccc(F)cn3)nc3cc(C(F)(F)F)cnc32)cn1 [Example 4, 2-(5-fluoropyridin-2-yl)-3-(6-methoxypyridin-3-yl)-6-(trifluoromethyl)-3H-imidazo[4,5-b]pyridine]
25 nM | 60 nM | > 10000 nM | COc1ccc(-n2c(-c3ccc(C#N)cn3)nc3cc(C(F)(F)F)ccc32)nn1 [Example 7, 6-[1-(6-methoxypyridazin-3-yl)-5-(trifluoromethyl)-1H-benzimidazole-2-yl]nicotinonitrile]
42 nM | 41 nM | > 10000 nM | COc1ccc(-n2c(-c3ccccn3)nc3cc(C(F)(F)F)cnc32)cn1 [Example 13, 3-(6-methoxypyridin-3-yl)-2-pyridin-2-yl-6-(trifluoromethyl)-3H-imidazo[4,5-b]pyridine]
200 nM |  | > 10000 nM | COc1ccc(-n2c(-c3ccccn3)nc3cc(C(F)(F)F)ccc32)cn1 [Example 14, 1-(6-methoxypyridin-3-yl)-2-pyridin-2-yl-5-(trifluoromethyl)-1H-benzimidazole]
49 nM | 180 nM | > 10000 nM | COc1ccc(-n2c(-c3ccc(Cl)cn3)nc3cc(C(F)(F)F)ccc32)cn1 [Example 36, 2-(5-chloropyridin-2-yl)-1-(6-methoxypyridin-3-yl)-5-(trifluoromethyl)-1H-benzimidazole]
330 nM | 170 nM | > 10000 nM | COc1ccc(-n2c(-c3ccccn3)nc3cc(OC(F)(F)F)ccc32)cn1 [Example 40, 1-(6-methoxypyridin-3-yl)-2-pyridin-2-yl-5-(trifluoromethoxy)-1H-benzimidazole]
84 nM | 87 nM |  | COc1ccc(-n2c(-c3ccccn3)nc3cc(OCC(C)C)cnc32)cn1 [Example 174, 6-isobuthoxy-3-(6-methoxypyridin-3-yl)-2-pyridin-2-yl-3H-imidazo[4,5-b]pyridine]
75 nM | 75 nM |  | COc1ccc(-n2c(-c3ccccn3)nc3cc(OCC(F)(F)F)cnc32)cn1 [Example 175, 3-(6-methoxypyridin-3-yl)-2-pyridin-2-yl-6-(2,2,2-trifluoroethoxy)-3H-imidazo[4,5-b]pyridine]
55 nM | 63 nM |  | COc1ccc(-n2c(-c3ccccn3)nc3cc(OC(C)C(F)(F)F)cnc32)cn1 (centres unmarked) [Example 176, 3-(6-methoxypyridin-3-yl)-2-pyridin-2-yl-6-(2,2,2-trifluoro-1-methylethoxy)-3H-imidazo[4,5-b]pyridine]
116 nM |  | > 10000 nM | COc1ccc(-n2c(-c3ccccn3)cc3cc(C(F)(F)F)ccc32)cn1 [Example 182, 1-(6-methoxypyridin-3-yl)-2-pyridin-2-yl-5-(trifluoromethyl)-1H-indole]
17 nM |  | > 10000 nM | COc1ccc(-n2c(-c3ccc(F)cn3)cc3cc(C(F)(F)F)cnc32)cn1 [Example 184, 2-(5-fluoropyridin-2-yl)-1-(6-methoxypyridin-3-yl)-5-(trifluoromethyl)-1H-pyrrolo[2,3-b]pyridine]
70 nM |  | > 10000 nM | COc1ccc(-c2c3ccc(C(F)(F)F)cc3nn2-c2ccc(F)cn2)cn1 [Example 185, 2-(5-fluoropyridin-2-yl)-3-(6-methoxypyridin-3-yl)-6-(trifluoromethyl)-2H-indazole]
